Columns and labels:
[1] = Solubility of the isolated salt in water (remark in the preparation examples); type: physicochemical; details: hydrochloride / dihydrochloride salt
alpha1 adrenoceptors = target: T1, alpha1 adrenoceptors (Rattus norvegicus, UniProt P15823); assay: Affinity for alpha1 adrenoceptors: displacement of tritiated prazosin on rat cardiac membranes; type: binding; details: Ki from IC50 by Cheng and Prusoff, read-out: Inhibition constants at alpha-1-adrenoceptor (Ki)
T1 construct: from tissue; host or cells: rat cardiac membranes
T1 sequence (P15823 1-515): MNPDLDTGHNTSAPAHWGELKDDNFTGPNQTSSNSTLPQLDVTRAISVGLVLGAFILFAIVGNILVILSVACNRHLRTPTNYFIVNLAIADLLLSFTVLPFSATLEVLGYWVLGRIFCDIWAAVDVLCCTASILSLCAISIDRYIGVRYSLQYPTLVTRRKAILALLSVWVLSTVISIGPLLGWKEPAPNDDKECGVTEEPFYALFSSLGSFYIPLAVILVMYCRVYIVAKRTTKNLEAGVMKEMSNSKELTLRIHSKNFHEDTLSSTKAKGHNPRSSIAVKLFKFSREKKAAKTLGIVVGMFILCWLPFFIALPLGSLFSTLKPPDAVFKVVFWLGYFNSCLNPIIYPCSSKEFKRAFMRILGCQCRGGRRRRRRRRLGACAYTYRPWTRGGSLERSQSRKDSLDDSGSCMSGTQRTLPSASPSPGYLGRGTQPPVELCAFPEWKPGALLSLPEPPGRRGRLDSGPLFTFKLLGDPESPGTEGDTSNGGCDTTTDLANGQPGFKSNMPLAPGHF
Procedure, shortened: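 Competitive displacement of tritiated prazosin from rat cardiac membranes; IC50 taken as the concentration giving 50% inhibition of specific binding. Ki values converted from IC50 by the Cheng-Prusoff relation.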

5-HT-1A receptors = target: T2, 5-HT-1A receptors (Rattus norvegicus, UniProt P19327); assay: Affinity for 5-HT-1A receptors: displacement of tritiated 8-OH-DPAT on rat brain membranes; type: binding; details: Ki from IC50 by Cheng and Prusoff, read-out: Inhibition constants at 5-HT1A-receptor (Ki)
T2 construct: 5-HT-1A receptors in rat brain membranes; from tissue; host or cells: rat brain membranes
T2 sequence (P19327 1-422): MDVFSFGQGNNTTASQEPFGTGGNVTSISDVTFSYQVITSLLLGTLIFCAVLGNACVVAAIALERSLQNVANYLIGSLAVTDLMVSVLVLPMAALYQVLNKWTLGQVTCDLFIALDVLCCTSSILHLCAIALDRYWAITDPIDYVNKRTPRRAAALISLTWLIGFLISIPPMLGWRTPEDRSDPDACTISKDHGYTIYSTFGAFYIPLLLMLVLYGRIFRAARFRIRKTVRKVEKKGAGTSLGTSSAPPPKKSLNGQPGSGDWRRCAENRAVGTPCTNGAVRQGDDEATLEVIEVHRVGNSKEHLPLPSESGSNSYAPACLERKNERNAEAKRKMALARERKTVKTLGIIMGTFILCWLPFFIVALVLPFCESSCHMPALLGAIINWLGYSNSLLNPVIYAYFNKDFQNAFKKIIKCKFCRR
Procedure: The affinity of compounds of the general formula I for 5-HT-1A receptors was determined by the method described by H. Gozlan, S. Elmestikawy, L. Pichat, J. Glowinski and M. Hamon in Nature 305, 140-142 (1983). In this method the competitive displacement of tritiated 8-OH-DPAT (8-hydroxy-(di-n-propylamino)tetralin) on rat brain membranes by the test substances is measured, and the IC50 (50% inhibition concentration) is determined as that concentration which brings about a 50% inhibition of the specific binding of tritiated 8-OH-DPAT to 5-HT-1A receptors in rat brain membranes.
The concentration-independent inhibitor constants K1 -alpha1 and K1 -5HT-1A were determined from the IC50 values as stated by Y. Cheng and H. W. Prusoff in Biochem. Pharmacol. 22, 3099-3108 (1973).

SMILES	solubility in water [1]	Ki (alpha1 adrenoceptors)	Ki (5-HT-1A receptors)
CC(C)(C)n1ncc(NCCN2CCN(c3cccc(C(F)(F)F)c3)CC2)c(Cl)c1=O	readily soluble in water	–	–
COc1ccccc1N1CCN(CCCCCCNc2cnn(C)c(=O)c2Cl)CC1 [2-Methyl-4-chloro-5-((6-(4-(2-methoxyphenyl)-1-piperazinyl)hexyl)amino)-3(2H)-pyridazinone]	soluble in water	–	–
COc1ccccc1N1CCN(CCNc2c(Cl)cnn(C)c2=O)CC1 [2-Methyl-5-chloro-4-((2-(4-(2-methoxyphenyl)-1-piperazinyl)ethyl)amino)-3(2H)-pyridazinone]	–	1.5 nM	16.6 nM
CCN(CCN1CCN(c2ccccc2OC)CC1)c1ccnn(C)c1=O [2-Methyl-4-(ethyl-(2-(4-(2-methoxyphenyl)piperazinyl-1)ethyl)amino)-3(2H)-pyridazinone]	–	68 nM	40.7 nM
COc1ccccc1N1CCN(CCCNc2cnn(C)c(=O)c2Cl)CC1 [2-Methyl-4-chloro-5-((3-(4-(2-methoxyphenyl)-1-piperazinyl)propyl)amino)-3(2H)-pyridazinone]	–	32.2 nM	50.7 nM
CCN(CCN1CCN(c2ccccc2OC)CC1)c1cnn(C)c(=O)c1 [2-Methyl-5-(ethyl-(2-(4-(2-methoxyphenyl)piperazinyl-1)ethyl)amino)-3(2H)-pyridazinone]	–	20.6 nM	24.2 nM
CC(C)(C)n1ncc(Cl)c(NCCN2CCN(c3cccc(C(F)(F)F)c3)CC2)c1=O	readily soluble in water	–	–
COc1cc(C)ccc1N1CCN(CCNc2c(Cl)cnn(C)c2=O)CC1 [2-Methyl-5-chloro-4-((2-(4-(2-methoxy-4-methylphenyl)piperazinyl-1)ethyl)amino)-3(2H)-pyridazinone]	–	22.4 nM	126 nM
COc1cc(C)ccc1N1CCN(CCNc2cnn(C)c(=O)c2)CC1 [2-Methyl-5-((2-(4-(2-methoxy-4-methylphenyl)piperazinyl-1)ethyl)amino)-3(2H)-pyridazinone]	–	207 nM	814 nM
Cn1nccc(NCCN2CCN(c3ccccc3O)CC2)c1=O [2-Methyl-4-((2-(4-(2-hydroxyphenyl)piperazinyl-1)ethyl)amino)-3(2H)-pyridazinone]	–	65.5 nM	36.5 nM
Cn1ncc(NCCN2CCN(c3ccccc3F)CC2)c(Cl)c1=O [2-Methyl-4-chloro-5-((2-(4-(2-fluorophenyl)piperazinyl-1)ethyl)amino)-3(2H)-pyridazinone]	–	28.2 nM	398 nM
COc1ccccc1N1CCN(CCCNc2cc(=O)n(C)c(=O)n2C)CC1 [URAPIDIL, reference compound]	–	110 nM	93.1 nM

Further lines, results first:

solubility in water [1]	Ki (alpha1 adrenoceptors)	Ki (5-HT-1A receptors)	SMILES
soluble in water	–	–	COc1ccccc1N1CCN(CCCCCCNc2c(Cl)cnn(C)c2=O)CC1 [2-methyl-5-chloro-4-((6-(4-(2-methoxyphenyl)-1-piperazinyl)hexyl)amino)-3(2H)-pyridazinone]
readily soluble in water	–	–	Cc1cccc(C)c1N1CCN(CCNc2c(Cl)cnn(C)c2=O)CC1 [2-methyl-5-chloro-4-((2-(4-(2,6-dimethylphenyl)-1-piperazinyl)ethyl)amino)-3(2H)-pyridazinone]
–	6.03 nM	65.8 nM	COc1ccccc1N1CCN(CCNc2cnn(C(C)(C)C)c(=O)c2)CC1 [2-t-Butyl-5-((2-(4-(2-methoxyphenyl)piperazinyl-1)ethyl)amino)-3(2H)-pyridazinone]
readily soluble in water	–	–	Cc1cccc(C)c1N1CCN(CCNc2cnn(C)c(=O)c2Cl)CC1 [2-methyl-4-chloro-5-((2-(4-(2,6-dimethylphenyl)-1-piperazinyl)ethyl)amino)-3(2H)-pyridazinone]
–	47.3 nM	8.31 nM	Cn1ncc(Cl)c(NCCN2CCN(c3cccc(C(F)(F)F)c3)CC2)c1=O [2-Methyl-5-chloro-4-((2-(4-(3-trifluoromethylphenyl)piperazinyl-1)ethyl)amino-3(2H)-pyridazinone]
–	5.43 nM	27 nM	COc1ccccc1N1CCN(CCNc2cn[nH]c(=O)c2Cl)CC1 [4-Chloro-5-((2-(4-(2-methoxyphenyl)-1-piperazinyl)ethyl)amino)-3(2H)-pyridazinone]
–	7.83 nM	90.8 nM	COc1ccccc1N1CCN(CCNc2c(OC)cnn(C)c2=O)CC1 [5-Methoxy-2-methyl-4-((2-(4-(2-methoxyphenyl)-1-piperazinyl)ethyl)amino)-3(2H)-pyridazinone]
